# Source: patent US6627441B1, “Increasing levels of growth regulator and/or water stress during embryo development” (priority 1998, dated 2003)
# Legend:
# Type in all cases: cell-based
# [1] = test system: white spruce somatic embryos; assay: PEG replacement during development, maturation frequency (Example 6); settings: treatment 2: PEG constant, lactose added from the third week; versus PEG control; FIG. 2
# Experimental: (§1) This experiment was carried out to observe the effect of replacing the non-permeating water stress with a permeating water stress during development. Thus, immature somatic embryos from suspension culture were precultured in 1/20 strength hormone medium for one week then transferred to maturation medium containing 3% sucrose, 20 μM ABA and adjusted to 290 mmol/kg with PEG. They were transferred to fresh medium weekly in which the osmoticum and ABA was increased. For the control (treatment 1) the PEG concentration was increased (as outlined in Example 4, treatment 6). In treatment 2, the PEG remained constant and water potential was increased by adding lactose (treatment 2). In treatment 3, PEG was increased after the first week, then lactose was added at the third and fourth weeks, and in the fifth week PEG was removed and replaced completely with lactose. Treatment 4 was the same as treatment 3, except that sucrose was used in place of lactose. Treatment 5 was similar to treatment 3, except that PEG was replaced with lactose earlier so that PEG was replaced totally by lactose by the fourth week. Total development time was six weeks.
# Each treatment comprised nine replicates. The number of embryos per treatment were scored and means prepared. […] The trend was that as PEG was replaced by permeating osmotica, the maturation frequency declined slightly. […]
# [2] = test system: Douglas fir somatic embryos; assay: Douglas fir somatic embryogenesis (Example 11); settings: replacing PEG at week 5 or week 6; compared with PEG being maintained
# Experimental: Douglas fir may be cultured using sucrose at 1-3% (30-90 mM), however, other sugars may be used at the same concentrations. Maintenance cultures usually contain the sugar at about 1%. […] Douglas fir embryogenic tissue was induced from developing seed. Embryos contained in megametophytes were induced and maintained on TX maintenance medium having 1% sucrose. This medium contained 0.2 g/L glutamine and 0.2 g/L casein hydrolysate. Selected embryogenic tissue was subcultured biweekly per petri dish. Medium was solidified with 2.4 g/L PHYTAGEL™. This medium contained 9 μM 2,4-D and 4.5 μM BA. Liquid suspension cultures were maintained in flasks containing 50 mL liquid maintenance medium Liquid cultures were subcultured weekly. For maturation, the embryogenic suspension was first precultured in liquid medium without growth regulators, and subcultured weekly. The water potential of the maintenance cultures and precultures remained below 150 mmol/kg. After one or two weeks of preculture, 1 to 2 g of filtered tissue was resuspended in 10 mL fresh medium and 0.75 mL of the new suspension was pipetted onto the solid maturation medium. Maturation medium contained calcium chloride at 105 mg/L, and ammonium nitrate was included at 400 mg/L. Glutamine was used at 0.8 g/L for the first week then reduced to 0.1 g/L thereafter. Casein hydrolysate was maintained at 0.2 g/L. The sugar was increased to 2-3% and the medium was solidified with Phytagel at 2.8 to 3.4 g/L. ABA was added into the medium after filter sterilization. The maturation medium also contained PEG. The ABA and water potential were raised following the schedule in the following table.
# In some instances, the PEG was reduced and the water potential made up to the desired level using lactose at 0% in the first week, 1% in week 2, 4% in weeks 3 and 4, 5% in week 5, and 6% in week 6. Although this allowed a firmer gel to set than otherwise would occur with PEG alone, it may not provide any other benefit over full PEG (see, for example, Table 8), particularly if liquid culture medium is used. […] The embryos were desiccated and stored in a freezer as described for spruce, or germinated directly without desiccation. For germination, embryos were placed on half-strength basal medium containing 0.4 g/L calcium nitrate, 0.2 g/L ammonium nitrate, no hormones and 2% sucrose and 0.6% agar. These were grown in the light.
# [3] = test system: somatic seedlings of white spruce; assay: Germination and shoot development after replacing PEG with alternative osmotica (Example 8); settings: for shoot development frequency of somatic seedlings: after 4-5 weeks growth
# Experimental: as §1
# White spruce somatic embryos were produced using all treatments described in Example 6 (replacement of PEG with sucrose or lactose). […] Embryos were desiccated for two weeks, then rehydrated and visually selected for subsequent transfer to fresh medium. The embryos from all treatments germinated to produce root and epicotyl elongation (i e., 100% germination). Subsequent growth differed amongst the treatments. After four to five weeks growth, 87% of somatic seedlings from treatment 1 had visible new shoot growth (new needles). All other treatments had much lower shoot emergence frequencies.
# [4] = test system: white spruce somatic embryos; assay: Effect of water stress and ABA on somatic embryo moisture contents (Example 4); settings: treatment 2: mannitol 290, 400, 540 mmol/kg with ABA 20, 30, 40 μM; six weeks
# Experimental: Water potentials were measured for liquid media containing various osmotica at a range of concentrations, which were plotted on a curve. Determinations were made using a vapour pressure osmometer (Wescor). Moisture content determinations were done using methods described previously by Attree et al. (U.S. Pat. No. 5,464,769).
# Embryos were cultured on medium containing 3% sucrose and ABA, with additional osmoticum adjusted to vary water potentials, as shown in Table 4.
# Embryos were cultured for six weeks and moisture contents determined. Determinations for each treatment were made weekly, with three replicates per treatment. 50 embryos per replicate were used. In some instances, particularly for the control with low osmoticum, insufficient embryos were produced. In these cases, the minimum number of embryos used per replicate was thirty. For weeks 0 to 2, the embryos were too small to be used for moisture content determinations, so whole tissue was used instead.
Structure (SMILES),maturation frequency [1],embryo development result [2],"shoot development frequency of somatic seedlings ([3]; Treatment 2: 6.6% lactose, partial PEG replacement)","shoot development frequency of somatic seedlings ([3]; Treatment 3: 10% lactose, mid replacement)",shoot development frequency of somatic seedlings ([3]; Treatment 5: 10% lactose early replacement),appearance of embryos before desiccation ([3]; treatment 5 of Example 6 (PEG replaced early with lactose)),shoot development frequency of somatic seedlings ([3]; Treatment 4: 13% sucrose mid replacement),appearance of embryos before desiccation ([3]; treatment 4 of Example 6 (PEG replaced with sucrose)),greening of embryos [4]
OC[C@H]1O[C@@H](O[C@H]2[C@H](O)[C@@H](O)C(O)O[C@@H]2CO)[C@H](O)[C@@H](O)[C@H]1O (stereo partly shown) [lactose],slight decline,very good results,1.5%,76.5%,49.2%,very slight splitting of the root cap region,–,–,–
OC[C@H]1O[C@@](CO)(O[C@H]2O[C@H](CO)[C@@H](O)[C@H](O)[C@H]2O)[C@@H](O)[C@@H]1O [sucrose],–,very good results,–,–,–,–,1.6%,very slight splitting of the root cap region,–
OC[C@@H](O)[C@@H](O)[C@H](O)[C@H](O)CO [mannitol],–,–,–,–,–,–,–,–,greening was prevented
